Results from patent publication US20100221758A1, “Sensors for Measuring Contaminants” (ECI Biotech Inc., priority 2007, published 2010).
“Also recorded” adds a separate entry of the source. Starred links: 1 amine or outer side, 2 acyl side, 3 side chain; linkers in the order of their positions; H or OH if unused. Residues, ends and D or L forms follow the SMILES beside them. *: point of attachment. Glutaryl = O=C(CCCC(=O)[*:2])[*:1]; AMC = Cc1cc(=O)oc2cc(N*)ccc12

Tests used:
[1] = tested on: thioredoxin reductase (trxB); experiment: Thioredoxin reductase (trxB) detection assay; format: biochemical, Mycoplasma hyorhinis
Description: Other fluorescent probes such as BODIPY®FL L-cystine and the 2′,7′-difluoro-4′-(2-(5-((dimethyl amino phenyl)azo)pyridyl)dithiopropionyl aminomethyl)fluorescein (abbreviated as DFDMAP-fluorescein) were studied to improve the sensitivity and the signal-to-noise ratio of the assay. Assays were performed with 40 mM Tris pH 7.2, 100 mM NaCl±detergent.
A detergent lysis buffer procedure that would hydrolyze the simple Mycoplasma cell membranes but not lyse the tissue culture cells was needed. Methyl-6-O—(N-heptylcarbamoyl)-α-D-glucopyranoside (HECAMEG) is a preferred detergent.
An alternative substrate to produce the thioredoxin reductase signal was to measure the release of horseradish peroxidase (HRP) from a chromatography bead tethered with the heterobifunctional crosslinking reagent 3,3′-dithiobis[sulfosuccinimidylpropionate] (DTSSP).

[2] = tested on: map Methionine aminopeptidase; experiment: Assays for proteolytic activity, fluorogenic MCA substrate (Table 5); format: biochemical, Mycoplasma hyorhinis; parameters: unit not given beside the values
From the text: (§1) Further studies examined the suitability of the […] for use in a diagnostic test. These studies used several fluorogenic substrates consisting of small chain amino acids coupled to a methoxy coumarin fluorescent probe (MCA, (7-methoxycoumarin-4-yl)acetyl). The test conditions were “buffer,” phosphate-buffered saline (PBS), “uninfected medium,” medium from cell cultures not infected with Mycoplasma, “infected medium,” medium from cell cultures infected with Mycoplasma, and a Mycoplasma positive control derived from a Mycoplasma culture. In each case the uninfected media control had substantial background proteolytic activity, with pepA being the most candidate with a signal-to-noise ratio (S/N) of about 2, where S/N=(Vmax infected medium)/(Vmax uninfected medium).

M. hyorhinis [3] = experiment: Vmax measured using MCA labeled substrates with gentle HECAMEG lysis; format: biochemical, Mycoplasma hyorhinis; parameters: Vmax: unit not given here
Description: (§2) A presently preferred substrate is leu-MCA that had significant activity above the uninfected media control under the gentle conditions used to lyse the Mycoplasma (0.05% HECAMEG, 1 mM MgCl2, 100 mM NaCl, 40 mM Tris buffer, pH 8.5). The MCA-Leu substrate produces a signal level of 500 mOD in 30 minutes with M. hyorhinis, while M. hyorhinis has weak activity for arg-MCA.

M. hyorhinis [4] = experiment: Effect of divalent cations on Vmax, MCA-Leu substrate; format: biochemical, Mycoplasma hyorhinis; parameters: unit not given here; conditions: 1 mM additive in place of 1 mM MgCl2
Description: as §2
Detergent lysis of M. hyorhinis with HECAMEG gives better signal than sonication. Manganese or magnesium also improves the signal to noise ratio.

[5] = tested on: pepA Leucine aminopeptidase; experiment: Assays for proteolytic activity, fluorogenic MCA substrate (Table 5); format: biochemical, Mycoplasma hyorhinis
From the text: as §1

[6] = tested on: reductases produced by the bacteria; experiment: Dye decolorization by bacterial culture supernatants; format: biochemical; conditions: bacterial culture supernatant, about 18 hours incubation
Description: Each well was incubated with 10 μg of reactive black 5 plus 190 μl of culture supernatant from the following bacterium: E. coli, E. faecalis, S. aureus, P. aeruginosa, S. pyogenes, and S. marcescens. […] The decolorization is indicative of reductases produced by the bacteria.
Reductase activity can be measured through a Azo dye that gets decolorized by the release of reductases from many bacterial cells. […] A sensor placed on the bottom of a culture dish, buffer container or even on a swab for measuring the presence of mycoplasma in human fluids can be used to ascertain bacterial contamination or infection. The benefit of a simple azo dye sensor is low cost although it may not specifically detect different bacteria. […] Each well was incubated with 10 μg of reactive black 5 plus 190 μl of filtered culture supernatant from the following bacterium: E. coli, E. faecalis, S. aureus, P. aeruginosa, S. pyogenes, and S. marcescens. […] The decolorization is indicative of reductases produced by the bacteria.

E. coli = experiment: Thioredoxin reductase cross-reactivity with DTNB substrate; format: biochemical; conditions: up to 10^6 CFU/ml E. coli
From the text: (§3) Since thioredoxin reductases are widely distributed in eukaryotes and prokaryotic cells, there is a possibility that thioredoxin reductases from other microbes may cross-react with this assay to give a false positive result. […] This high NTS activity is presumed to be useful for Mycoplasma for the detoxification of reactive oxygen compounds, since the Mollicutes have simple genomes that lack the genes encoding enzymes such as catalase, peroxidase and […] that function to remove H2O2 and other oxygen radicals in other bacteria (Gibson, D. G., et al., Complete chemical synthesis, assembly, and cloning of a Mycoplasma genitalium genome. Science. 319(5867):1215-1220 (2008)).

S. aureus = experiment: as above; format: biochemical; conditions: up to 10^6 CFU/ml S. aureus
From the text: as §3

Mycoplasma cells = experiment: Detergent lysis buffer procedure for trxB assay; format: cell-based
Description: A detergent lysis buffer procedure that would hydrolyze the simple Mycoplasma cell membranes but not lyse the tissue culture cells was needed. Methyl-6-O—(N-heptylcarbamoyl)-α-D-glucopyranoside (HECAMEG) is a preferred detergent. […] As expected, 0.1 mM NADPH enhanced the activity of trxB (FIG. 12). As a substrate for trxB, Bodipy® FL L-cystine provided a signal that was 7500 times that of the buffer control, however this signal was an artifact of the digitonin.

[7] = tested on: lon ATP-dependent protease; experiment: Assays for proteolytic activity, fluorogenic MCA substrate (Table 5); format: biochemical, Mycoplasma hyorhinis; parameters: unit not given beside the values
From the text: as §1

Cc1cc(C)n2c1C=C1C=CC(CCC(=O)N[C@@H](CSSC[C@H](NC(=O)CCC3=[N+]4C(=Cc5c(C)cc(C)n5[B-]4(F)F)C=C3)C(=O)O)C(=O)O)=[N+]1[B-]2(F)F [Bodipy® FL L-cystine, BODIPY®FL L-cystine]
signal relative to buffer control ([1]; signal was an artifact of the digitonin): 7500 times

methionine-(7-methoxycoumarin-4-yl)acetyl [met-MCA]
Vmax ([2]; Buffer (PBS)): 19.4
Vmax ([2]; Infected medium): 627
Vmax ([2]; Mycoplasma positive control): 733
Vmax ([2]; Uninfected medium): 430
Vmax (M. hyorhinis [3]; Buffer): 125
Vmax (M. hyorhinis [3]; Infected medium): 302082
Vmax (M. hyorhinis [3]; Medium): 1731
Vmax (M. hyorhinis [3]; Uninfected medium): 19004

[Cl][Mn][Cl] [MnCl2]
Vmax, MCA-Leu Substrate (M. hyorhinis [4]; Medium): 1703

O=S(=O)([O-])[O-].[Mg+2] [MgSO4]
Vmax, MCA-Leu Substrate (M. hyorhinis [4]; Buffer): 483
Vmax, MCA-Leu Substrate (M. hyorhinis [4]; Infected): 90365
Vmax, MCA-Leu Substrate (M. hyorhinis [4]; Uninfected): 5125

leucine-(7-methoxycoumarin-4-yl)acetyl [leu-MCA]
Vmax ([5]; Buffer (PBS)): 2874
Vmax ([5]; Infected medium): 906
Vmax ([5]; Mycoplasma positive control): 522
Vmax ([5]; Uninfected medium): 454
Vmax (M. hyorhinis [3]; Buffer): 236
Vmax (M. hyorhinis [3]; Infected medium): 415190
Vmax (M. hyorhinis [3]; Medium): 2118
Vmax (M. hyorhinis [3]; Uninfected medium): 17422
signal level (M. hyorhinis [3]; in 30 minutes with M. hyorhinis): 500 mOD

arginine-(7-methoxycoumarin-4-yl)acetyl [arg-MCA]
activity of M. hyorhinis for substrate (M. hyorhinis [3]; 0.05% HECAMEG, 1 mM MgCl2, 100 mM NaCl, 40 mM Tris buffer, pH 8.5): weak activity
Vmax (M. hyorhinis [3]; Buffer): 0
Vmax (M. hyorhinis [3]; Infected medium): 60903
Vmax (M. hyorhinis [3]; Medium): 676
Vmax (M. hyorhinis [3]; Uninfected medium): 29034

CN(C)c1ccc(N=Nc2ccc(C(=O)O)cc2)cc1 [DABCYL, 4-((4-(dimethylamino)phenyl)azo)benzoic acid]
decolorization [6]: completely decolorized

CCN(Cc1cccc(S(=O)(=O)[O-])c1)c1ccc(C(=C2C=CC(=[N+](CC)Cc3cccc(S(=O)(=O)[O-])c3)C=C2)c2ccccc2S(=O)(=O)[O-])cc1.[Na+].[Na+] [blue dye number 1]
decolorization [6]: not decolorized

CN(C)c1ccc(N=Nc2ccc(SSCCC(=O)NCc3c(O)c(F)cc4c(-c5ccccc5C(=O)O)c5cc(F)c(=O)cc-5oc34)nc2)cc1 [DFDMAP fluorescein, 2′,7′-difluoro-4′-(2-(5-((dimethylaminophenyl)azo)pyridyl)dithiopropionylaminomethyl)fluorescein]
detection level ([1]; at 10^7-10^8 CFU/ml): 10,000-20,000 RFU

O=C(O)c1cc(SSc2ccc([N+](=O)[O-])c(C(=O)O)c2)ccc1[N+](=O)[O-] [DTNB, 5,5′-Dithio-bis-(2-nitrobenzoic acid)]
hydrolysis / thioredoxin reductase activity (E. coli): no significant activity; also recorded: no appreciable hydrolysis
hydrolysis / thioredoxin reductase activity (S. aureus): no significant activity; also recorded: no appreciable hydrolysis

CCCCCCCNC(=O)OC[C@H]1O[C@H](OC)[C@H](O)[C@@H](O)[C@@H]1O [HECAMEG, Methyl-6-O—(N-heptylcarbamoyl)-α-D-glucopyranoside]
concentration sufficient to lyse Mycoplasma cells while not disrupting the membranes of the cultured cells (Mycoplasma cells): 0.5%

Cc1cc(=O)oc2cc(NC(=O)[C@H](Cc3ccccc3)NC(=O)[C@H](C)NC(=O)[C@H](C)NC(=O)CCCC(=O)O)ccc12 [glt-ala-ala-phe-MCA] (Glutaryl-Ala-Ala-Phe-{AMC})
Vmax ([7]; Buffer (PBS)): 55.8
Vmax ([7]; Infected medium): 1802
Vmax ([7]; Mycoplasma positive control): 3354
Vmax ([7]; Uninfected medium): 1460

O=C(O)CN(CCN(CC(=O)O)CC(=O)O)CC(=O)O [EDTA]
Vmax, MCA-Leu Substrate (M. hyorhinis [4]; Buffer): 0
Vmax, MCA-Leu Substrate (M. hyorhinis [4]; Infected): 45241
Vmax, MCA-Leu Substrate (M. hyorhinis [4]; Medium): 1710
Vmax, MCA-Leu Substrate (M. hyorhinis [4]; Uninfected): 3873

Nc1c(N=Nc2ccc(S(=O)(=O)CCOS(=O)(=O)[O-])cc2)c(S(=O)(=O)[O-])cc2cc(S(=O)(=O)[O-])c(N=Nc3ccc(S(=O)(=O)CCOS(=O)(=O)[O-])cc3)c(O)c12.[Na+].[Na+].[Na+].[Na+] [reactive black 5]
decolorization [6]: completely decolorized
